Experimental data reported in US8722580B2, “Agent for inhibiting cytokinin signaling” (Sumitomo Chemical Company, Limited, priority 2006, dated 2014).

What was measured:
[1] = test system: Arabidopsis thaliana; assay: Root growth-promoting activity test (Example 9); assay type: in vivo; conditions: main root length vs control section, 22° C., 10 days
Experimental: (§1) Enshi standard medium having the following composition (see Table 10) was prepared. To cluster tubes was dispensed each 4 μl of a solution of a chemical substance in DMSO to a final concentration of 0.001 ppm to 10 ppm, and then, was dispensed each 600 μl of the sterilized Enshi standard medium. Then the resulting solution was well mixed. In each of the cluster tubes, 10-20 seeds of Arabidopsis thaliana were sown, and cultured at 22° C. for 10 days in the light. Then, the length of main roots (average main roots) generated from the seeds of Arabidopsis thaliana was measured. An average of eight repeats was determined, and a root growth rate was determined according to the following equation.
(§2) Root growth rate (%)=(Average main root length in chemical substance-treated section)/(Average main root length in control section)×100

[2] = test system: Arabidopsis thaliana; assay: Root growth-promoting activity test (Example 22); assay type: in vivo; conditions: main root length vs control section, 22° C., 10 days
Experimental: as §1, with “18)” for “10)”
as §2
Enshi standard medium determined having the following composition (Table 18) was prepared. A DMSO solution of a chemical substance was dispensed by 4 μl to cluster tubes to a final concentration of 0.001 ppm to 10 ppm and the sterilized Enshi standard medium was dispensed by 600 μl and then the resulting solution was well mixed. 10-20 seeds of A. thaliana per cluster tube were sown in the cluster tubes. After culture at 22° C. for 10 days in bright light, the length of main roots (average main roots) took from seeds of A. thaliana was measured. An average of eight repeats was determined and the root growth rate was determined.
Root growth rate (%)=(Average main root length of chemical substance-treated section)/(Average main root length of control section)×100

[3] = test system: transformed cell TM182-p415CYC1; assay: Control growth test with transformed yeast cell TM182-p415CYC1 (toxicity to yeast); assay type: cell-based; conditions: trans-zeatin 0.6 ppm; chemical substance 2 ppm; 30° C., 24 hours; turbidity OD 600
Experimental: (§3) The transformed cell TM182-CRE1 and the transformed cell TM182-p415CYC1 obtained in Example 6 were each inoculated in 10 ml of a DOLU+Gal medium, and preincubated at 30° C. for 18 hours to obtain a preincubation liquid for each of the transformed cells. The preincubation liquid was diluted with a DOLU+Glu medium for the transformed cell TM182-CRE1 or with a DOLU+Gal medium for the transformed cell TM182-p415CYC1 until OD600=0.1 was reached, to obtain a preincubation dilution for each of the transformed cells.
(§4) To each well of a 96-well plate was added 1 μl of a 200 ppm solution of a test substance in dimethyl sulfoxide (DMSO) to prepare an Assay plate. At the same time, as controls, only 1 μl of DMSO was added to a part of wells. An assay plate for the transformed cell TM182-CRE1 and an assay plate for the transformed cell TM182-p415CYC1 were prepared.
(§5) A 10,000 ppm solution of trans-zeatin (cytokinin) in DMSO was 50-fold diluted with a DOLU+Gul medium to 200 ppm. The 200 ppm trans-zeatin solution was added in an amount of 3/1,000 volume to each of the above-described preincubation dilution to prepare each preincubation dilution containing trans-zeatin at 0.6 ppm. The 0.6 ppm preincubation dilution was added in an amount of 100 μl to each wells of the assay plate for each transformed cell. The plates were incubated at 30° C. for 24 hours. Then, turbidity (OD 600) of each well was measured by using a plate reader. The activity of the test substance for inhibiting intracellular signaling from a plant-derived cytokinin receptor of a cell was tested by comparing the measured turbidity with the turbidity of the control well.
(§6) (Relative growth rate in test section to control section) [%]=[(Turbidity in test section)−(Turbidity in blank)]/[(Turbidity in control section)−(Turbidity in blank)]×100 (Activity of inhibiting intracellular signaling from plant-derived cytokinin receptor of cell) [%]=100−(Relative growth rate in test section to control section)
(§7) In all cases, the existing concentration of trans-zeatin was adjusted to 0.6 ppm and the existing concentration of a chemical substance was adjusted to 2 ppm.
(§8) In all cases, the existing concentration of trans-zeatin was adjusted to 0.6 ppm and the existing concentration of a chemical substance was adjusted to 2 […].

[4] = target: T1, cytokinin receptor CRE1 (Arabidopsis thaliana, UniProt Q9C5U0, S567G/T1018A); assay: Inhibition of intracellular signaling from plant-derived cytokinin receptor, growth of transformed yeast cell TM182-CRE1; assay type: cell-based; conditions: trans-zeatin 0.6 ppm, chemical substance 2 ppm; for Relative growth rate (%) in test section of test substance to control section, Transformed cell TM182-CRE1: 30° C., 24 hours, turbidity OD 600; for Activity (%) of test substance for inhibiting intracellular signaling from plant-derived cytokinin receptor of cell: = 100 − relative growth rate of TM182-CRE1
T1 construct: expressed in transfected cells; host or cells: Saccharomyces cerevisiae TM182 (sln1Δ) transformed with p415CYC-CRE1
T1 sequence (Q9C5U0 24-1080 S567G/T1018A): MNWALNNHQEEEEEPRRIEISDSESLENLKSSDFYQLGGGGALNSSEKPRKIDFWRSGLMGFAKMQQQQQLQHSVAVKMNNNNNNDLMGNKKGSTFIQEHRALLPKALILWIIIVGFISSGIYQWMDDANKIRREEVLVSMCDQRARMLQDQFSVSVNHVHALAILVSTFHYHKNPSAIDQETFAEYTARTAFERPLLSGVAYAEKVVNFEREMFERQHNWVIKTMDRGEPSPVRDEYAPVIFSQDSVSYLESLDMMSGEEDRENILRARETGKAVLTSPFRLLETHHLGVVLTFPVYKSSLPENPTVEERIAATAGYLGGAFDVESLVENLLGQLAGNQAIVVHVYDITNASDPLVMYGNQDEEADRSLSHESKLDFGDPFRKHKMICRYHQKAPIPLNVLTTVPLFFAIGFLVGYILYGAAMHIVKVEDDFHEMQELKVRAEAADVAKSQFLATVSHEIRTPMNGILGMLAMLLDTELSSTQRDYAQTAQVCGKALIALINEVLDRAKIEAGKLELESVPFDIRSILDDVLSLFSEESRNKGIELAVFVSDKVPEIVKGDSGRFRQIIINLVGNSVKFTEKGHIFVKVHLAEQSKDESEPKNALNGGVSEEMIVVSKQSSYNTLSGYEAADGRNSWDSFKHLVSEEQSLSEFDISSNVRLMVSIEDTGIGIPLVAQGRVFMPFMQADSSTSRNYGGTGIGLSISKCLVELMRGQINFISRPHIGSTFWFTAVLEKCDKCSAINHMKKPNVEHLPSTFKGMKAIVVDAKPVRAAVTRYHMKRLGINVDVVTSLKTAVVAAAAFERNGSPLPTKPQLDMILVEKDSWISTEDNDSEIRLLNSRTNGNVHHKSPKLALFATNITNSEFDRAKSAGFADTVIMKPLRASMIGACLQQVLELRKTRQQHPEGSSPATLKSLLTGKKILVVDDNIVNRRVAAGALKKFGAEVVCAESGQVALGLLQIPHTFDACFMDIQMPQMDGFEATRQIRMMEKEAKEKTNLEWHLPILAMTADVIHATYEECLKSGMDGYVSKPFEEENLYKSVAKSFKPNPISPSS
Experimental: as §3, §4, §5, §6, §7, §8

[5] = test final concentration 2.5 ppm (concentration with highest root growth rate)
[6] = test final concentration 2.5 ppm (highest root growth rate)
[7] = test final concentration 1.25 ppm (concentration with highest root growth rate)
[8] = test final concentration 1.25 ppm (highest root growth rate)
[9] = test final concentration 10 ppm (concentration with highest root growth rate)
[10] = test final concentration 10 ppm (highest root growth rate)
[11] = test final concentration 5 ppm (concentration with highest root growth rate)
[12] = test final concentration 5 ppm (highest root growth rate)

SMILES | Relative growth rate (%) in test section of test substance to control section, Transformed cell TM182-p415CYC1 [3] | Relative growth rate (%) in test section of test substance to control section, Transformed cell TM182-CRE1 [4] | Activity (%) of test substance for inhibiting intracellular signaling from plant-derived cytokinin receptor of cell [4] | Root growth-promoting activity (root growth rate) [1, 9] | Root growth-promoting activity (root growth rate) [2, 10] | also measured
OCCCNc1nc(-c2ccccc2)c2c(Cl)cccc2n1 [Ic1-1] | – | – | – | – | – | Root growth-promoting activity (root growth rate) [1, 5]: 150.9%; Root growth-promoting activity (root growth rate) [2, 6]: 150.9%
OCCCCCNc1nc(-c2ccccc2)c2cc(Cl)ccc2n1 [Ic3-5] | 115.4% | 3.5% | 96.5% | – | – | Root growth-promoting activity (root growth rate) ([1]; test final concentration 0.625 ppm (concentration with highest root growth rate)): 134.0%; Root growth-promoting activity (root growth rate) ([2]; test final concentration 0.625 ppm (highest root growth rate)): 134.0%
COCCNc1nc(-c2ccccc2)c2cc(Cl)ccc2n1 [Ic3-7] | 104.1% | 2.8% | 97.2% | – | – | Root growth-promoting activity (root growth rate) [1, 7]: 142.5%; Root growth-promoting activity (root growth rate) [2, 8]: 142.5%
CCCNc1nc(-c2ccccc2)c2cc(Cl)ccc2n1 [Ic3-8] | – | – | – | – | – | Root growth-promoting activity (root growth rate) [1, 7]: 136.4%; Root growth-promoting activity (root growth rate) [2, 8]: 136.4%
CC(C)CCNc1nc(-c2ccccc2)c2cc(Cl)ccc2n1 [Ic3-10] | – | – | – | 120.6% | 120.6% | –
OCCCCCCNc1nc(-c2ccccc2)c2cc(Cl)ccc2n1 [Ic3-11] | 84.6% | 3.9% | 96.1% | – | – | Root growth-promoting activity (root growth rate) [1, 7]: 128.2%; Root growth-promoting activity (root growth rate) [2, 8]: 128.2%
CC(CO)CCNc1nc(-c2ccccc2)c2cc(Cl)ccc2n1 (stereo not shown) [Ic3-12] | 90.9% | 5.6% | 94.4% | – | – | Root growth-promoting activity (root growth rate) [1, 7]: 128.9%; Root growth-promoting activity (root growth rate) [2, 8]: 128.9%
CC(C)=CCNc1nc(-c2ccccc2)c2cc(Cl)ccc2n1 [Ic3-17] | – | – | – | 121.3% | 121.3% | –
CC(=CCNc1nc(-c2ccccc2)c2cc(Cl)ccc2n1)CO [Ic3-18] | 105.3% | 4.0% | 96.0% | – | – | Root growth-promoting activity (root growth rate) [1, 5]: 139.5%; Root growth-promoting activity (root growth rate) [2, 6]: 139.5%
CCNc1nc(-c2ccccc2)c2cc(Cl)ccc2n1 [Ic3-24] | 112.5% | 2.1% | 97.9% | – | – | Root growth-promoting activity (root growth rate) [1, 7]: 122.8%; Root growth-promoting activity (root growth rate) [2, 8]: 122.8%
CC(C)Nc1nc(-c2ccccc2)c2cc(Cl)ccc2n1 [Ic3-28] | – | – | – | 120.4% | 120.4% | –
C=CCNc1nc(-c2ccccc2)c2cc(Cl)ccc2n1 [Ic3-29] | 92.7% | 1.6% | 98.4% | 122.4% | 122.4% | –
Clc1ccc2nc(NCC3CCCO3)nc(-c3ccccc3)c2c1 (stereo not shown) [Ic3-37] | 114.2% | 3.5% | 96.5% | – | – | Root growth-promoting activity (root growth rate) [1, 11]: 138.5%; Root growth-promoting activity (root growth rate) [2, 12]: 138.5%
COCCCNc1nc(-c2ccccc2)c2cc(Cl)ccc2n1 [Ic3-38] | 99.4% | 1.2% | 98.8% | – | – | Root growth-promoting activity (root growth rate) [1, 11]: 141.9%; Root growth-promoting activity (root growth rate) [2, 12]: 141.9%
Cc1ccc2nc(NCCCO)nc(-c3ccccc3)c2c1 [Ic5-5] | 126.3% | 7.2% | 92.8% | – | – | Root growth-promoting activity (root growth rate) [1, 5]: 157.8%
OCCCNc1nc(-c2ccccc2)c2cc(C(F)(F)F)ccc2n1 [Ic6-2] | – | – | – | – | – | Root growth-promoting activity (root growth rate) [1, 5]: 155.9%; Root growth-promoting activity (root growth rate) [2, 6]: 155.9%
N#Cc1ccc2nc(NCCCO)nc(-c3ccccc3)c2c1 [Ic9-1] | – | – | – | 141.5% | 141.5% | –
OCCCNc1nc(-c2ccccc2)c2ccc(Cl)cc2n1 [Ic10-1] | – | – | – | 163.6% | 163.6% | –
Clc1cc(Cl)c2nc(NCc3ccco3)nc(-c3ccccc3)c2c1 [Ic12-3] | – | – | – | – | – | Root growth-promoting activity (root growth rate) [1, 5]: 138.8%; Root growth-promoting activity (root growth rate) [2, 6]: 138.8%
